Experimental data taken from ChEMBL document CHEMBL1139727, “A novel series of imidazo[1,2-a]pyridine derivatives as HIF-1alpha prolyl hydroxylase inhibitors” (Bioorg Med Chem Lett, 2006).

Target: Egl nine homolog 1 (Homo sapiens, UniProt Q9GZT9)
Experiment: Inhibition of human EGLN1

Egl nine homolog 1, sequence (Q9GZT9 whole entry): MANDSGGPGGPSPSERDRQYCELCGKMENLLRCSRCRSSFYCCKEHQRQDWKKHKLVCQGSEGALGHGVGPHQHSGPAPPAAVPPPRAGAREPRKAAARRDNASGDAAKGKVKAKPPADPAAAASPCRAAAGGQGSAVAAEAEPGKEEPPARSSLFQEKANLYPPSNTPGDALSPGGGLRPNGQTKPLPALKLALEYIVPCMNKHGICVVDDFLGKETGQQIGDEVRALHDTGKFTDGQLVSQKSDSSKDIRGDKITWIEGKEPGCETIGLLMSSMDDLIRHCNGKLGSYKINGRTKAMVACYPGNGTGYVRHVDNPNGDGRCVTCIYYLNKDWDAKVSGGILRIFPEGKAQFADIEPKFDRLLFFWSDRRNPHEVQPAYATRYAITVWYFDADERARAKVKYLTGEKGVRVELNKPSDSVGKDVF

IC50: > 100 µM
SMILES: Cc1cccc(-c2ccc3nc(C(=O)NCC(=O)O)cn3c2)c1
